In the NIST ThermoML archive (doi:10.1021/je200673a):

Assay: molar heat capacity at constant pressure
Settings: 101.33 kPa, Crystal, Vacuum adiabatic calorimetry

C(#Cc1ccccc1)c1ccccc1 [1,2-diphenylethyne]
Settings | molar heat capacity at constant pressure [J/K/mol]
5 K | 0.4461
7.76 K | 1.66
8.24 K | 1.997
8.4 K | 2.155
8.56 K | 2.246
8.71 K | 2.325
8.87 K | 2.454
9.02 K | 2.473
9.17 K | 2.661
9.32 K | 2.644
9.46 K | 2.813
9.61 K | 3.003
9.75 K | 3.203
9.9 K | 3.352
10 K | 3.39
10.04 K | 3.408
10.23 K | 3.58
10.46 K | 3.861
10.7 K | 4.163
10.94 K | 4.495
11.19 K | 4.753
11.43 K | 4.952
11.67 K | 5.282
11.92 K | 5.556
12.16 K | 5.878
12.4 K | 6.207
12.65 K | 6.564
12.9 K | 6.777
13.14 K | 7.156
13.39 K | 7.478
13.65 K | 7.835
13.9 K | 8.246
14.15 K | 8.579
14.4 K | 8.944
14.66 K | 9.243
14.91 K | 9.637
15.16 K | 9.985
15.42 K | 10.37
15.67 K | 10.79
15.93 K | 11.12
16.19 K | 11.5
16.44 K | 11.93
16.7 K | 12.28
16.96 K | 12.67
17.22 K | 13.04
17.48 K | 13.53
17.74 K | 13.89
18 K | 14.4
18.26 K | 14.75
18.52 K | 15.13
18.78 K | 15.54
19.05 K | 15.99
19.31 K | 16.45
19.57 K | 16.8
19.83 K | 17.2
20 K | 17.46
20.1 K | 17.57
20.52 K | 18.22
21.06 K | 19.09
21.59 K | 19.97
22.13 K | 20.72
22.66 K | 21.52
23.2 K | 22.37
23.74 K | 23.22
24.28 K | 24.1
24.82 K | 25
25 K | 25.27
25.36 K | 25.89
25.9 K | 26.74
26.44 K | 27.46
26.99 K | 28.2
27.53 K | 29.01
28.08 K | 29.84
28.62 K | 30.62
29.17 K | 31.47
29.72 K | 32.26
30 K | 32.68
30.27 K | 33.13
30.82 K | 33.87
31.36 K | 34.72
31.91 K | 35.51
32.46 K | 36.31
33.02 K | 37.01
33.57 K | 37.75
34.12 K | 38.45
34.67 K | 39.14
35 K | 39.59
35.23 K | 39.87
35.78 K | 40.61
36.33 K | 41.23
36.89 K | 41.86
37.44 K | 42.57
38 K | 43.15
38.56 K | 43.79
39.11 K | 44.41
39.67 K | 45.07
40 K | 45.41
40.22 K | 45.63
40.78 K | 46.31
41.33 K | 46.9
41.89 K | 47.45
42.45 K | 48.18
43 K | 48.73
43.56 K | 49.34
44.12 K | 49.91
44.67 K | 50.46
45 K | 50.83
45.23 K | 51.09
45.79 K | 51.68
46.35 K | 52.17
46.91 K | 52.71
47.47 K | 53.2
48.03 K | 53.68
48.59 K | 54.18
49.15 K | 54.59
49.71 K | 55.12
50 K | 55.37
50.26 K | 55.73
50.82 K | 56.2
51.38 K | 56.69
51.94 K | 57.24
52.5 K | 57.84
53.06 K | 58.52
53.62 K | 59.22
54.18 K | 59.95
54.74 K | 60.54
55 K | 60.87
55.3 K | 61.31
55.87 K | 61.85
56.43 K | 62.34
56.99 K | 62.76
57.55 K | 63.28
58.11 K | 63.73
58.67 K | 64.14
59.23 K | 64.53
59.8 K | 64.94
60 K | 65.09
60.36 K | 65.36
60.92 K | 65.81
61.48 K | 66.28
62.04 K | 66.76
62.6 K | 67.25
63.16 K | 67.82
63.73 K | 68.11
64.29 K | 68.62
64.85 K | 68.97
65 K | 69.08
65.42 K | 69.41
65.98 K | 69.58
66.54 K | 69.95
67.11 K | 70.3
67.67 K | 70.73
68.23 K | 71.09
68.8 K | 71.47
69.36 K | 71.95
69.92 K | 72.22
70 K | 72.22
70.61 K | 72.52
71.41 K | 72.9
72.21 K | 73.45
73.01 K | 73.99
73.82 K | 74.48
74.62 K | 74.91
75 K | 75.15
75.42 K | 75.39
76.23 K | 75.72
77.03 K | 76.12
77.83 K | 76.43
78.64 K | 76.81
79.44 K | 77.36
80 K | 77.65
80.24 K | 77.8
81.05 K | 78.26
81.85 K | 78.59
82.56 K | 78.83
82.65 K | 79
83.36 K | 79.36
83.46 K | 79.49
84.16 K | 79.79
84.26 K | 79.97
84.96 K | 80.29
85 K | 80.26
85.77 K | 80.6
86.57 K | 81.07
87.37 K | 81.61
88.17 K | 81.87
88.98 K | 82.43
89.78 K | 82.92
90 K | 82.96
90.58 K | 83.29
91.39 K | 83.69
92.19 K | 84.3
92.99 K | 84.62
93.8 K | 85.08
94.6 K | 85.51
95 K | 85.79
95.4 K | 85.87
96.21 K | 86.49
97.01 K | 86.97
97.81 K | 87.46
98.61 K | 87.8
99.42 K | 88.33
100 K | 88.7
100.22 K | 88.79
101.02 K | 89.52
101.82 K | 89.71
102.62 K | 90.12
103.42 K | 90.81
104.22 K | 91.27
105.03 K | 91.64
105.84 K | 92.04
106.64 K | 92.61
107.45 K | 93.03
108.25 K | 93.65
109.06 K | 94.16
109.87 K | 94.48
110 K | 94.56
110.68 K | 94.84
111.49 K | 95.38
112.3 K | 95.96
113.12 K | 96.26
113.93 K | 96.77
114.74 K | 97.3
115.56 K | 97.84
116.37 K | 98.29
117.19 K | 98.7
118.01 K | 99.29
118.83 K | 99.69
119.65 K | 100.31
120 K | 100.39
120.47 K | 100.58
121.29 K | 101.29
122.11 K | 101.7
